Assay [1] concerns proteasome. The note with it: Fenteany et al., Science 1995; cited from earlier work.
Assay [2] concerns fibroblasts isolated from an SMA patient. Briefly: SMN protein and gem formation in SMA patient fibroblasts. It is filed as cell-based, human. The settings on record: compared with the control DMSO. An excerpt: The invention is further related to the appreciation that the assays described herein can be efficiently used as the primary assay for selecting a candidate for the treatment of SMA. Thus, the invention relates to a method for selecting a candidate for the treatment of SM-A comprising (a) contacting the candidate with a fibroblast cell culture derived from an SMA patient under conditions and for a period of time sufficient for SMN protein expression and gem formation; (b) determining the formation of gems of SMN protein; and (c) selecting the candidate. The formation of gems can be determined by establishing the percentage of fibroblasts with gems in the cell culture. In other embodiments, the number of gems or concentration of gems in the culture can be determined.
Cell lines are derived from SMA patients. Such cells are termed “SMA cells” herein. The cells are isolated from a variety of sources and tissues. For example, the cells can be isolated from a blood sample or from a biopsy. The cell can be a stem cell, a fibroblast, a neuronal cell or a lymphoid cell. The cells can be propagated in culture according to cell type and origin of the cells. The requisite growth factors can be provided in the media. For example, the media can be supplemented with fetal calf serum, a cocktail of purified factors, or an individual growth factor. The cells can be propagated without being immortalized. Alternatively, the cells can immortalized using a virus or a plasmid bearing an oncogene, or a transforming viral protein, e.g., papilloma E6 or E7 protein. The source of the fibroblasts for cell culture can be isolated from a patient with SMA or derived from such an isolation. In one embodiment, the cells are a clonal cell culture derived from an SMA patient.
Procedures for isolating and maintaining cells lines are well known in the art and can be found in suitable laboratory manuals. The cells can be grown in sufficient amount to screen an array of test compounds. Alternatively, cells can be used to assess the effectiveness of individual compounds as SMA treatments. […]

For assay [3], the system named is several cell types. The settings on record: Fenteany et al., PNAS 1994; cited from earlier work.

Molecules are shown by their SMILES.

With `CC(=O)N[C@@H](CSC(=O)[C@]1([C@@H](O)C(C)C)NC(=O)[C@H](C)[C@@H]1O)C(=O)O` [Lactacystin, lactacystin], in assay [1], the “proteolytic activity of the proteasome complex” value is “specifically inhibits”. Also, in assay [2], the “SMN & Gems in patient fibroblasts (pictures)” value is “induced”. The “proliferation of several cell types” value in assay [3] is “capable of inhibiting”. In the case of `CC(C)[C@H](O)[C@@]12NC(=O)[C@H](CCCl)[C@]1(C)OC2=O` [Antiprotealide, antiprotealide], the “SMN & Gems in patient fibroblasts (pictures)” value in assay [2] was “induced”. Still for that read-out and setting: under `CC(C)C[C@H](NC(=O)[C@H](Cc1ccccc1)NC(=O)c1cnccn1)B(O)O` [Velcade, bortezomib] stands “induced”.
